Laboratory results from US12564576B2, “Therapeutic agent for vascular disorder” (NATIONAL UNIVERSITY CORPORATION KUMAMOTO UNIVERSITY, priority 2020, dated 2026).

Test system: synthesis and secretion of a type IV collagen protein in vascular endothelial cells derived from iPS cells
Assay: Amount of type IV collagen protein released into the medium by iPS-derived vascular endothelial cells (Western blotting)
Assay type: cell-based, human
Conditions: 10 nmol/L digoxin, serum-free medium, 3 days culture; FIG. 3
Protocol: As the cells, iPS cells derived from healthy adults and patients with scleroderma established at Kumamoto University were used (Zhongzhi Wang, et al., JDS 2016 November; 84(2): 186-196.). Scleroderma is known to cause Raynaud's syndrome, which is one of peripheral vascular disorders, as a symptom of scleroderma, and therefore was employed as a vascular disorder model cell.
Differentiation induction into vascular endothelial cells was performed by culturing iPS cells derived from healthy adults and patients with scleroderma under the conditions described in Table 1.
As the obtained cells, only cells positive for VE-cadherin (CD144) and PECAM-1 (CD31), which are vascular endothelial cell markers, were sorted using flow cytometry. From the morphology of the sorted cells and the expression of the marker genes, it was confirmed that the sorted cells were vascular endothelial cells. […]
In the above (1), using the cell supernatant cultured in the serum-free medium, the amount of a type IV collagen protein released into the medium was quantified by the following method.
First, proteins released into the medium were concentrated. […] After removal of ethanol, the precipitate was dried and dissolved in an RIPA buffer, and each sample was adjusted to have a protein concentration of 1 mg/ml using a protein quantification reagent (Bradford Protein Assay, manufactured by Bio-Rad Laboratories, Inc.). […]

Compound: C[C@H]1O[C@@H](O[C@H]2[C@@H](O)C[C@H](O[C@H]3[C@@H](O)C[C@H](O[C@H]4CC[C@@]5(C)[C@H](CC[C@@H]6[C@@H]5C[C@@H](O)[C@]5(C)[C@@H](C7=CC(=O)OC7)CC[C@]65O)C4)O[C@@H]3C)O[C@@H]2C)C[C@H](O)[C@@H]1O [digoxin]
- amount of a type IV collagen protein in the medium: hardly reduced
